# DBAASP
# Legend:
# Experiment in all cases: ≥ marks a high value that may be exact or a test limit, other limits are often not marked, values filed in µg/mL are converted to µM
# [1] = system: Staphylococcus aureus NCDC 0111
# [2] = system: Salmonella enterica subsp. enterica serovar Typhimurium ATCC 14028
# [3] = system: Bacillus cereus NCDC 0240
# [4] = system: Acinetobacter johnsonii NCDC 0072
# [5] = system: Staphylococcus aureus ATCC 29213
# [6] = system: Listeria monocytogenes ATCC 19111
# [7] = system: Escherichia coli MTCC 0723
# [8] = system: Pseudomonas aeruginosa NCDC 0105
# [9] = system: Pseudomonas aeruginosa ATCC 27853
# Rothia nasimurium = system: Rothia nasimurium
# Aerococcus viridans = system: Aerococcus viridans
# Staphylococcus sciuri = system: Staphylococcus sciuri
# Klebsiella pneumoniae = system: Klebsiella pneumoniae
# Pseudomonas aeruginosa = system: Pseudomonas aeruginosa
# [10] = system: Escherichia coli ATCC 25922
# Escherichia coli O111 = system: Escherichia coli O111
# [11] = system: Salmonella enterica subsp. enterica serovar Enteritidis CICC 21527
# [12] = system: Paenibacillus polymyxa CGMCC 4314
# [13] = system: Salmonella enterica subsp. enterica serovar Paratyphi B CICC 21495
# Bacillus cereus AS1.1846 = system: Bacillus cereus AS1.1846
# [14] = system: Salmonella enterica subsp. enterica serovar Paratyphi A CICC 21501
# [15] = system: Clostridioides difficile CICC 22951
# [16] = system: Salmonella typhimurium CMCC 51005
# [17] = system: Clostridium perfringens CICC 22949
# [18] = system: Micrococcus luteus CMCC 28000
# [19] = system: Geobacillus stearothermophilus CICC 20139
# [20] = system: Clostridium sporogenes CICC 10385
# [21] = system: Bacillus megaterium CICC 10448
# [22] = system: Serratia marcescens CICC 10187
# [23] = system: Alicyclobacillus acidoterrestris CICC 10374
# [24] = system: Bacillus pumilus CMCC 63202
# [25] = system: Bacillus subtilis ATCC 9943
# [26] = system: Proteus mirabilis CMCC 49005
# [27] = system: Staphylococcus aureus CMCC 26003
# [28] = system: Pseudomonas fluorescens AS1.1802
# [29] = system: Shigella flexneri CMCC 51571
# [30] = system: Enterococcus faecalis V583
# [31] = system: Pectobacterium carotovorum
# Trichoderma viride = system: Trichoderma viride
# Fusarium culmorum = system: Fusarium culmorum
# Ascochyta pisi = system: Ascochyta pisi
# Botrytis cinerea = system: Botrytis cinerea
# Salmonella typhimurium = system: Salmonella typhimurium
# Escherichia coli D31 = system: Escherichia coli D31
# Escherichia coli 1106 = system: Escherichia coli 1106
# Escherichia coli D22 = system: Escherichia coli D22
# Pediococcus acidilactici = system: Pediococcus acidilactici
# Alternaria brassicicola = system: Alternaria brassicicola
# Micrococcus luteus = system: Micrococcus luteus
# Enterobacter cloacae = system: Enterobacter cloacae
# Bacillus subtilis = system: Bacillus subtilis
# Bacillus megaterium = system: Bacillus megaterium
# Neurospora crassa = system: Neurospora crassa
# Fusarium oxysporum = system: Fusarium oxysporum
# Fusarium haematococcum = system: Fusarium haematococcum
smiles,measurement,setting,value
CC[C@H](C)[C@H](NC(=O)[C@H](CO)NC(=O)[C@H](Cc1c[nH]c2ccccc12)NC(=O)[C@@H]1CCCN1C(=O)[C@@H](NC(=O)[C@H](C)N)[C@@H](C)CC)C(=O)N[C@@H](Cc1c[nH]c2ccccc12)C(=O)N[C@@H](Cc1c[nH]c2ccccc12)C(=O)N[C@@H](Cc1cnc[nH]1)C(=O)N[C@@H](CC(C)C)C(=O)N[C@@H](CC(C)C)C(=O)N[C@@H](Cc1ccccc1)C(=O)N[C@@H](CCCCN)C(=O)NCC(=O)O [AIPWSIWWHLLFKG],MIC,[1],12.5 µM
same,MIC,[2],3 µM
same,MIC,[3],≥ 50 µM
same,MIC,[4],25 µM
same,MIC,[5],0.8 µM
same,MIC,[6],1.5 µM
same,MIC,[7],≥ 50 µM
same,MIC,[8],≥ 200 µM
same,MIC,[9],200 µM
N[C@@H](CC(=O)O)C(=O)N[C@@H](CCC(=O)O)C(=O)N[C@@H](CC(=O)O)C(=O)N[C@@H](CC(=O)O)C(=O)N[C@@H](CC(=O)O)C(=O)O [DEDDD],MIC,Rothia nasimurium,16.5 µM
same,MIC,Aerococcus viridans,≥ 32.9 µM
same,MIC,Staphylococcus sciuri,≥ 82.3 µM
same,MIC,Klebsiella pneumoniae,82.3 µM
same,MIC,[5],16.5 µM
same,MIC,Pseudomonas aeruginosa,82.3 µM
same,MIC,[10],82.3 µM
same,MIC,Escherichia coli O111,≥ 82.3 µM
CSCC[C@H](NC(=O)[C@H](CCCCN)NC(=O)[C@H](CCC(N)=O)NC(=O)[C@H](Cc1c[nH]c2ccccc12)NC(=O)[C@@H](N)Cc1ccccc1)C(=O)N[C@@H](CO)C(=O)N[C@@H](Cc1ccccc1)C(=O)N[C@@H](C)C(=O)O [FWQKMSFA],MIC,[11],15.3 µM
same,MIC,[12],15.3 µM
same,MIC,[13],15.3 µM
same,MIC,Bacillus cereus AS1.1846,15.3 µM
same,MIC,[14],15.3 µM
same,MIC,[15],30.6 µM
same,MIC,[16],30.6 µM
same,MIC,[17],30.6 µM
same,MIC,[18],15.3 µM
same,MIC,[19],30.6 µM
same,MIC,[20],30.6 µM
same,MIC,[21],15.3 µM
same,MIC,[22],15.3 µM
same,MIC,[23],15.3 µM
same,MIC,[24],15.3 µM
same,MIC,[25],15.3 µM
same,MIC,[26],15.3 µM
same,MIC,[27],15.3 µM
same,MIC,[28],15.3 µM
same,MIC,[10],61.3 µM
same,MIC,[29],30.6 µM
CC[C@H](C)[C@H](N)C(=O)N[C@H](C(=O)N[C@@H](CO)C(=O)N[C@@H](CO)C(=O)N[C@@H](CCSC)C(=O)N[C@@H](Cc1ccccc1)C(=O)N[C@H](C(=O)N[C@@H](CO)C(=O)N[C@@H](C)C(=O)O)C(C)C)C(C)C [IVSSMFVSA],MIC,[30],≥ 133 µM
CC[C@H](C)[C@H](NC(=O)[C@@H](NC(=O)[C@@H]1CCCN1C(=O)[C@@H](NC(=O)[C@@H]1CCCN1C(=O)[C@@H](N)CCCCN)C(C)C)[C@@H](C)CC)C(=O)N[C@@H](Cc1ccc(O)cc1)C(=O)N[C@H]1CSSC[C@@H](C(=O)N[C@@H](CCC(N)=O)C(=O)N[C@@H](CCCN=C(N)N)C(=O)N[C@@H](CCSC)C(=O)O)NC(=O)[C@H](CCCCN)NC(=O)CNC(=O)[C@H]([C@@H](C)O)NC(=O)[C@H](CCCN=C(N)N)NC(=O)[C@H](CCCN=C(N)N)NC(=O)[C@H](CC(N)=O)NC1=O [KPVPIIYCNRRTGKCQRM],MIC,[31],28.3 µM
same,MIC,Aerococcus viridans,0.849 µM
same,MIC,Trichoderma viride,3.54 µM
same,MIC,Fusarium culmorum,7.07 µM
same,MIC,Klebsiella pneumoniae,1.73 µM
same,MIC,Ascochyta pisi,14.1 µM
same,MIC,Botrytis cinerea,1.73 µM
same,MIC,Salmonella typhimurium,1.73 µM
same,MIC,Escherichia coli D31,0.424 µM
same,MIC,Escherichia coli 1106,0.849 µM
same,MIC,Escherichia coli D22,0.424 µM
same,MIC,Pediococcus acidilactici,28.3 µM
same,MIC,Alternaria brassicicola,3.54 µM
same,MIC,Micrococcus luteus,1.73 µM
same,MIC,Enterobacter cloacae,1.73 µM
same,MIC,Bacillus subtilis,28.3 µM
same,MIC,Pseudomonas aeruginosa,28.3 µM
same,MIC,Bacillus megaterium,3.54 µM
same,MIC,Neurospora crassa,3.54 µM
same,MIC,Fusarium oxysporum,28.3 µM
same,MIC,Fusarium haematococcum,7.07 µM
